ChEMBL document CHEMBL5223064, “A review of the latest research on Mpro targeting SARS-COV inhibitors” (RSC Med Chem, 2021)
Peptide text beside a SMILES is read from it.

Tests used:
SARS-CoV-2 = experiment: Antiviral activity against SARS-CoV-2 USA-WA1/2020 infected in African green monkey Vero 76 cells assessed as reduction in virus-induced cytopathic effect measured after 5 days by neutral red dye uptake analysis; type: functional, organism-based; conditions: Severe acute respiratory syndrome coronavirus 2, USA-WA1/2020, Vero 76, 120 h
[1] = Bioavailability in CD-1 mouse at 20 mg/kg, ip measured for 24 hrs by LC-MS/MS analysis; type: ADME, organism-based; conditions: in vivo

Compound	EC50 (SARS-CoV-2) [nM]	bioavailability [1] [%]
CC(C)C[C@H](NC(=O)OCc1ccccc1)C(=O)N[C@@H](C[C@@H]1CCNC1=O)C(O)S(=O)(=O)O (some centres undefined)	490	
O=C[C@H](C[C@@H]1CCNC1=O)NC(=O)[C@H](Cc1cccc(F)c1)NC(=O)c1cc2ccccc2[nH]1		80
CSCC[C@@H](C=O)NC(=O)[C@H](CC(C)C)NC(=O)[C@H](CC(C)C)NC(C)=O (Ac-Leu-Leu-Met-aldehyde)	490	
CC(C)(C)NC(=O)N[C@H](C(=O)N1C[C@H]2[C@@H]([C@H]1C(=O)NC(CC1CCC1)C(=O)C(N)=O)C2(C)C)C(C)(C)C (some centres undefined) [BOCEPREVIR]	490	
